Experiment: Determination of the log P values by HPLC (formic acid method)
Type: physicochemical
Conditions: reversed-phase HPLC column (C 18), reversed-phase column (C 18), acidic range (pH 3.4), 55° C.
Procedure: 1) Description of Method for Determination of the Log P Values (Formic Acid Method)
Eluents for determination in the acidic range (pH 3.4):
Eluent A: acetonitrile+1 ml of formic acid/liter. Eluent B: water+0.9 ml of formic acid/liter.
The lambda max values were determined in the maxima of the chromatographic signals using the UV spectra from 200 nm to 400 nm.

| Structure (SMILES) | chromatographic logP |
| --- | --- |
| O=C(Nc1ccn(-c2ncnc(F)c2F)n1)c1ccccc1C(F)(F)F [Compound I-1-169, N-[1-(5,6-Difluoropyrimidin-4-yl)-1H-pyrazol-3-yl]-2-(trifluoromethyl)benzamide] | 2.62 |
| N#Cc1c(C(F)(F)F)cc(C2CC2)nc1-n1ccc(NC(=O)c2ccccc2C(F)(F)F)n1 [Compound I-1-570, N-{1-[3-Cyano-6-cyclopropyl-4-(trifluoromethyl)pyridin-2-yl]-1H-pyrazol-3-yl}-2-(trifluoromethyl)benzamide] | 3.99 |

Same assay, conditions: reversed-phase column (C 18), acidic range (pH 3.4), 55° C.

| Structure (SMILES) | log P | chromatographic logP |
| --- | --- | --- |
| O=C(Nc1ccn(-c2cncc(F)n2)n1)c1cccnc1C(F)(F)F [Compound I-1-402] | 2.76 | – |
| O=C(Nc1ccn(-c2ncc(F)cc2F)n1)c1ccccc1[N+](=O)[O-] [Compound I-1-147] | 2.00 | – |
| O=C(Nc1ccn(-c2cc(F)c(F)cc2F)n1)c1ccccc1Br [Compound I-1-194] | 3.99 | – |
| O=C(Nc1ccn(-c2c(F)cccc2F)n1)c1cccnc1F [Compound I-1-279] | 2.00 | – |
| Cn1ncc(F)c1C(=O)Nc1ccn(-c2ncc(F)cc2F)n1 [Compound I-1-538] | 2.03 | – |
| O=C(Nc1nn(-c2cc(F)cnc2F)c2ccc(F)cc12)c1ccccc1C(F)(F)F [Compound I-5-7] | 3.39 | – |
| CC1=C(C(=O)Nc2ccn(-c3ncc(F)cc3F)n2)SCCO1 [Compound I-1-498] | 2.17 | – |
| O=C(Nc1nn(-c2ncc(F)cc2F)cc1F)c1ccccc1C(F)(F)F [Compound I-1-465] | 2.44 | – |
| CCn1ncc(Br)c1C(=O)Nc1ccn(-c2ncc(F)cc2F)n1 [Compound I-1-518] | 2.61 | – |
| O=C(Nc1ccn(-c2cccc(Cl)c2F)n1)c1cccnc1Br [Compound I-1-558] | 2.64 | – |
| O=C(Nc1cnn(-c2c(F)cccc2F)n1)c1nccnc1C(F)(F)F [Compound I-2-79] | 2.60 | – |
| O=C(Nc1cnn(-c2ccccc2Cl)n1)c1cccnc1C(F)(F)F [Compound I-2-4] | 2.54 | – |
| Cc1cc(NC(=O)c2ncccc2C(F)(F)F)nn1-c1ccccc1Cl [Compound I-1-376] | 2.57 | – |
| O=C(Nc1ccn(-c2ncc(F)cc2F)n1)c1c(Cl)cccc1C(F)(F)F [Compound I-1-638] | 2.70 | – |
| O=C(Nc1ccn(-c2ncc(F)cc2F)n1)c1ccsc1I [Compound I-1-494] | 2.53 | – |
| O=C(Nc1ccn(-c2ncc(F)cc2F)n1)c1cccnc1C(F)F [Compound I-1-460] | 1.77 | – |
| O=C(Nc1nn(-c2ccccc2Br)nc1Cl)c1cccnc1C(F)(F)F [Compound I-2-28] | 2.77 | – |
| O=C(Nc1ccn(-c2nccc(-c3ccc(F)cc3)c2F)n1)c1ccccc1C(F)(F)F [Compound I-1-642] | 3.40 | – |
| O=C(Nc1ccn(-c2ncccc2C(F)(F)F)n1)c1ccccc1Cl [Compound I-1-425] | 2.57 | – |
| O=C(Nc1cnn(-c2c(F)cccc2F)n1)c1ccsc1I [Compound I-2-40] | 2.90 | – |
| CS(=O)(=O)c1ccccc1-n1ccc(NC(=O)c2cccnc2C(F)(F)F)n1 [Compound I-1-180] | 2.00 | – |
| O=C(Nc1cnn(-c2cc(F)cnc2F)n1)c1ccccc1C(F)(F)F [Compound I-2-62] | 2.77 | – |
| N#Cc1cncnc1-n1ccc(NC(=O)c2ccccc2C(F)(F)F)n1 [Compound I-1-594] | 2.34 | – |
| O=C(c1cccc(Cl)c1Cl)N(C(=O)c1cccc(Cl)c1Cl)c1ccn(-c2ncc(F)cc2F)n1 [Compound I-1-477] | 4.47 | – |
| Cc1nc(C(F)(F)F)c(C(=O)Nc2ccn(-c3c(F)cccc3F)n2)s1 [Compound I-1-114] | 2.58 | – |

| Structure (SMILES) | log P | chromatographic logP |
| --- | --- | --- |
| CCc1nn(C)c(C(=O)Nc2ccn(-c3c(F)cccc3F)n2)c1Cl [Compound I-1-316] | 3.24 | – |
| O=C(Nc1nn(-c2ncc(F)cc2F)cc1Br)c1ccccc1C(F)(F)F [Compound I-1-474] | 2.61 | – |
| O=C(Nc1ccn(-c2ncc(F)cc2F)n1)c1ccccc1Br [Compound I-1-144] | 2.36 | – |
| O=C(c1ccccc1C(F)(F)F)N(C(=O)c1ccccc1C(F)(F)F)c1cnn(-c2ncccc2Cl)n1 [Compound I-2-52] | 3.74 | – |
| CC(=O)c1ccccc1C(=O)Nc1ccn(-c2c(F)cccc2F)n1 [Compound I-1-270] | 2.38 | – |
| O=C(Nc1ccn(-c2ncc(Cl)cc2F)n1)c1ccsc1I [Compound I-1-592] | 2.99 | – |
| Cn1cccc1C(=O)Nc1ccn(-c2ncc(F)cc2F)n1 [Compound I-1-647] | 2.16 | – |
| Nc1ccn(-c2c(F)cccc2F)n1 [1-(2,6-Difluorophenyl)-1H-pyrazole-3-amine] | – | 1.13 |
| N#Cc1c(F)cccc1-n1ccc(NC(=O)c2cccnc2C(F)(F)F)n1 [Compound I-1-618] | 2.26 | – |
| O=C(Nc1ccn(-c2ncc(F)cc2F)n1)c1snnc1C1CC1 [Compound I-1-537] | 2.45 | – |
| O=C(Nc1ccn(-c2cc(F)c(F)cc2F)n1)c1ccccc1C(F)(F)F [Compound I-1-193] | 3.73 | – |
| O=C(Nc1ccn(-c2ccccc2Cl)n1)c1sccc1Cl [Compound I-1-377] | 3.29 | – |
| O=C(Nc1ccn(-c2c(F)cccc2F)n1)C1=C(C(F)F)OCCS1 [Compound I-1-611] | 2.53 | – |
| O=C(Nc1ccn(-c2ncc(F)cc2F)n1)c1c(F)cccc1C(F)(F)F [Compound I-1-491] | 2.57 | – |
| O=C(c1ccccc1C(F)(F)F)N(CC(F)F)c1ccn(-c2c(F)cccc2F)n1 [Compound I-1-264] | 3.38 | – |
| N#Cc1cc(F)ccc1-n1ccc(NC(=O)c2c(F)cccc2C(F)(F)F)n1 [Compound I-1-632] | 2.64 | – |
| Cc1cc(NC(=O)c2ccccc2C(F)(F)F)nn1-c1ccc(F)cc1F [Compound I-1-202] | 3.78 | – |
| CC(C)n1nc([N+](=O)[O-])c(Cl)c1C(=O)Nc1ccn(-c2ncc(F)cc2F)n1 [Compound I-1-528] | 3.11 | – |
| Cn1nc(C(F)F)c(C(=O)Nc2ccn(-c3ncc(F)cc3F)n2)c1F [Compound I-1-500] | 2.06 | – |
| N#Cc1cc(F)ccc1-n1ccc(NC(=O)c2ccsc2I)n1 [Compound I-1-633] | 2.73 | – |
| O=C(Nc1cnn(-c2ncc(F)cc2F)n1)c1c(F)cccc1C(F)(F)F [Compound I-2-71] | 2.51 | – |
| O=C(Nc1ccn(-c2ncc(F)cc2F)n1)c1ccnn1C(F)F [Compound I-1-443] | 2.16 | – |
| O=C(Nc1ccn(-c2ccccc2Cl)n1)c1nccnc1Cl [Compound I-1-363] | 2.45 | – |
| Cc1nc(C(F)(F)F)c(C(=O)Nc2ccn(-c3ccccc3Cl)n2)s1 [Compound I-1-371] | 2.88 | – |
| O=C(Nc1cnn(-c2ncc(F)cc2F)n1)c1ccccc1I [Compound I-2-73] | 2.39 | – |

From US9802899B2, “Heterocyclic compounds as pesticides” (BAYER CROPSCIENCE AG, priority 2012, dated 2017)
